# Assay results from ChEMBL document CHEMBL6103579, “Antiproliferative activity of selenium-enriched coumarin derivatives on the SK-N-SH neuroblastoma cell line: Mechanistic insights” (Eur J Med Chem, 2025).
# The source made the active and inactive calls. The calls are words filed in the database; no cut-off is given here.
# Experiments:
# [1] = system: SK-N-SH; test: Induction of mitochondrial dysfunction in human SK-N-SH cells assessed as increase in intracellular green fluorescence intensity at 3 to 9 uM; format: functional, cell-based; details: dose 3-9 µM
# [2] = system: SK-N-SH; test: Induction of mitochondrial dysfunction in human SK-N-SH cells assessed as increase in intracellular green fluorescence intensity at 6 uM; format: functional, cell-based; details: time 2-48 hrs
# [3] = Antiproliferative activity against human Neuroblastoma cell assessed as inhibition of cell growth incubated for 60 hrs by CCK-8 method; format: functional, cell-based
# [4] = Antiproliferative activity against human Embryonic lung cell assessed as inhibition of cell growth incubated for 60 hrs by CCK-8 method; format: toxicity, cell-based
# [5] = system: SK-N-SH; test: Inhibition of colony formation in human SK-N-SH cells assessed as reduction in colony size at 0.5 to 2 uM preincubated for 24 hrs followed by incubation under compound free medium for 8 days by crystal violet staining based analysis; format: functional, cell-based; details: dose 0.5-2 µM
# [6] = system: SK-N-SH; test: Antiproliferative activity against human SK-N-SH cells assessed as reduction in cell proliferation at 0.5 uM incubated for 60 hrs by CCK-8 method relative to control; format: functional; set-up: scale not given: the % may be the effect or the level left
# [7] = system: SK-N-SH; test: Antiproliferative activity against human SK-N-SH cells assessed as reduction in cell proliferation at 1 uM incubated for 60 hrs by CCK-8 method relative to control; format: functional; set-up: scale not given: the % may be the effect or the level left
# [8] = system: SK-N-SH; test: Antiproliferative activity against human SK-N-SH cells assessed as reduction in cell proliferation at 2 uM incubated for 60 hrs by CCK-8 method relative to control; format: functional; set-up: scale not given: the % may be the effect or the level left
# [9] = system: SK-N-SH; test: Antiproliferative activity against human SK-N-SH cells assessed as reduction in cell proliferation incubated for 60 hrs by CCK-8 method; format: functional, cell-based; details: dose 0.5-2 µM
# [10] = system: SK-N-SH; test: Inhibition of cell migration in human SK-N-SH cells at 0.5 to 2 uM measured after 48 hrs by crystal violet staining based microscopic analysis; format: functional; details: dose 0.5-2 µM
# [11] = system: SK-N-SH; test: Inhibition of cell invasion in human SK-N-SH cells at 0.5 to 2 uM measured after 48 hrs by crystal violet staining based microscopic analysis; format: functional; details: dose 0.5-2 µM
# [12] = system: SK-N-SH; test: Inhibition of cell migration in human SK-N-SH cells at 2 uM measured after 48 hrs by crystal violet staining based microscopic analysis relative to control; format: functional
# [13] = system: SK-N-SH; test: Inhibition of cell invasion in human SK-N-SH cells at 2 uM measured after 48 hrs by crystal violet staining based microscopic analysis relative to control; format: functional
# [14] = Downregulation of N-cadherin expression in human SK-N-SH cells at 6 uM measured after 48 hrs by Western blot analysis relative to control; format: functional
# [15] = Downregulation of Beta-catenin expression in human SK-N-SH cells at 6 uM measured after 48 hrs by Western blot analysis relative to control; format: functional
# [16] = Downregulation of Beta-catenin expression in human SK-N-SH cells at 9 uM measured after 48 hrs by Western blot analysis relative to control; format: functional
# [17] = Downregulation of vimentin expression in human SK-N-SH cells at 3 to 9 uM measured after 48 hrs by Western blot analysis relative to control; format: functional; details: dose 3-9 µM
# [18] = (§1) Upregulation of E-cadherin expression in human SK-N-SH cells measured after 48 hrs by Western blot analysis relative to control; format: functional; details: dose 3-9 µM, at 3 to 9 µM
# [19] = system: SK-N-SH; test: as §1; format: functional; details: dose 3-9 µM
# [20] = system: SK-N-SH; test: Induction of apoptosis in human SK-N-SH cells assessed as increase in apoptotic cells measured after 48 hrs by FITC and PI staining based flow cytometry analysis; format: functional, cell-based; details: dose 3-9 µM
# [21] = system: SK-N-SH; test: Induction of apoptosis in human SK-N-SH cells assessed as increase in apoptotic cells at 3 to 9 uM measured after 48 hrs by FITC and PI staining based flow cytometry analysis relative to control; format: functional; details: dose 3-9 µM
# [22] = system: SK-N-SH; test: Downregulation of Bcl-2 expression in human SK-N-SH cells at 3 to 9 uM measured after 48 hrs by Western blot analysis; format: functional, cell-based; details: dose 3-9 µM
# [23] = system: SK-N-SH; test: Upregulation of Bax expression in human SK-N-SH cells at 3 to 9 uM measured after 48 hrs by Western blot analysis; format: functional, cell-based; details: dose 3-9 µM
# [24] = system: SK-N-SH; test: Upregulation of Bax/[…] ratio in human SK-N-SH cells at 3 to 9 uM measured after 48 hrs by Western blot analysis; format: functional, cell-based; details: dose 3-9 µM
# [25] = system: SK-N-SH; test: Downregulation of caspase-3 expression in human SK-N-SH cells at 3 to 9 uM measured after 48 hrs by Western blot analysis; format: functional, cell-based; details: dose 3-9 µM
# [26] = system: SK-N-SH; test: Downregulation of caspase-9 expression in human SK-N-SH cells at 3 to 9 uM measured after 48 hrs by Western blot analysis; format: functional, cell-based; details: dose 3-9 µM
# [27] = system: SK-N-SH; test: Upregulation of cytochrome C level in human SK-N-SH cells at 6 uM measured after 48 hrs by immunofluorescence staining based microscopic analysis; format: functional, cell-based
# [28] = system: SK-N-SH; test: Upregulation of AIF level in human SK-N-SH cells at 6 uM measured after 48 hrs by immunofluorescence staining based microscopic analysis; format: functional, cell-based
# [29] = target: Quadruplex DNA; test: Binding affinity to HRCC G4 DNA (mitochondrial DNA) (unknown origin) assessed as dissociation constant by SPR analysis; format: nucleic-acid assay
# [30] = target: Quadruplex DNA; test: Binding affinity to BCL-2 G4 DNA (unknown origin) assessed as dissociation constant by SPR analysis; format: nucleic-acid assay
# [31] = system: N2a; test: Antitumor activity against mouse N2a cells implanted in female ICR mouse model assessed as suppression of tumor cell proliferation administered as ip dose measured upto 8 days by Ki67 staining based analysis; format: functional, organism-based; details: dose 10-20 mg/kg, time <= 8.0 day
compound,measurement,setting,value
N#C[Se]CCCOc1ccc2cc(C(=O)N3N=C(c4ccc(F)cc4)CC3c3ccc(F)cc3)c(=O)oc2c1 (stereo unspecified),Activity,[1],Active
same,Activity,[2],Time-dependent-effect
same,IC50,[3],2500 nM
same,Activity,[4],Non-toxic
same,inhibition,[5],Active
same,Activity,[6],24.1%
same,Activity,[7],63.8%
same,Activity,[8],81.4%
same,Activity,[9],Dose-dependent-effect
same,inhibition,[10],Active
same,inhibition,[11],Active
same,inhibition at 2 µM,[12],83.2%
same,inhibition at 2 µM,[13],78.4%
same,Activity,[14],63.1%
same,Activity,[15],70.8%
same,Activity,[16],42.2%
same,Activity,[17],33.1%
same,Activity,[18],32.3%
same,Activity,[19],Dose-dependent-effect
same,Activity,[20],Dose-dependent-effect
same,Activity,[21],47.4%
same,Activity,[22],Active
same,Activity,[23],Active
same,Activity,[24],Active
same,Activity,[25],Active
same,Activity,[26],Active
same,Activity,[27],Active
same,Activity,[28],Active
same,Kd,[29],14.2 nM
same,Kd,[30],78.5 nM
same,Activity,[31],Dose-dependent-effect
